These results are taken from US9023789B2, “Amylin analogs and pharmaceutical compositions thereof” (Novo Nordisk A/S, priority 2012, dated 2015).

In brackets after ≈: the same amount, converted by molar mass. Where two headings read alike, the source gives them in different places. Numbered stars: 1 amine (or outer) side, 2 acyl side, 3 side chain; on linkers, the order of the positions; unused ones are H or OH. Bridge positions count the residues as written; N and C are the ends. Side chains are listed from the residue outwards. Peptide text beside a SMILES is read from it. * marks the point of attachment. C20 diacid = O=C(O)CCCCCCCCCCCCCCCCCCC(=O)*; γGlu = O=C(O)[C@H](CCC(=O)[*:2])N[*:1]; AEEA = NCCOCCOCC(=O)O

In one data set the test system is Sprague Dawley (SD) rats. Put plainly: ASSAY (I) efficacy testing on appetite (food intake) using an ad libitum fed rat model. The format is in vivo. The note with it: rat, 30 nmol/kg. Summed up:
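Ad libitum fed SD rats (200–250 g) were housed singly on a reversed light/dark cycle and given one 0.01–3 mg/kg dose ip, po or sc just before lights-off, with 5–8 per dose group plus vehicle controls. Food intake was recorded hourly for 7 h, then at 24 h and sometimes 48 h; Grubbs outliers were excluded.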

The nature of data set [1]: ASSAY (IV) determination of solubility. It counts as physicochemical. Summed up:
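Polypeptide stock in water ([…]) was mixed 1:1 with 100 mM buffers: glycylglycine at pH 3.0, 4.0, 5.0 and bistrispropane at pH 6.0, 6.5, 7.0, 7.5, 8.0. After 18 hours at room temperature, samples were centrifuged and polypeptide concentration measured by UPLC.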

Data set [2] deals with T1, human amylin receptor (membranes from Amylin 3(a)/CRE-luc cells) (Homo sapiens, UniProt O60896+P30988).
T1 construct: expressed in transfected cells
T1 sequence (P30988 25-474): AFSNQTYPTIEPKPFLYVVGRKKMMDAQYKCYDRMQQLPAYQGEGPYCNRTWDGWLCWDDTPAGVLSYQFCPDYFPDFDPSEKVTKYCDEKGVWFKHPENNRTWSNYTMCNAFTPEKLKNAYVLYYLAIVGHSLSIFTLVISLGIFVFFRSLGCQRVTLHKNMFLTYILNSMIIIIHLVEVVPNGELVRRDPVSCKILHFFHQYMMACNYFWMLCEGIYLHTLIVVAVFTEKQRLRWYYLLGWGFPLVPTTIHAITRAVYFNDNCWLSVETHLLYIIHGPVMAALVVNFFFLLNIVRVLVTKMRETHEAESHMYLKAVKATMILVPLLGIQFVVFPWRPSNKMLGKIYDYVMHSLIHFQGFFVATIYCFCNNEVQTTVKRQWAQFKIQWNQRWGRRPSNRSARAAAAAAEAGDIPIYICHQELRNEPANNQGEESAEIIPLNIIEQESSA
T1 sequence (O60896 24-148 partner): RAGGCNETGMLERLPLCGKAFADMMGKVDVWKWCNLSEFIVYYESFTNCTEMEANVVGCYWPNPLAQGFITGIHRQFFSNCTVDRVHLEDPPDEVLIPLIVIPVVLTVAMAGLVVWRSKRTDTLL
Put plainly: ASSAY (V) binding to the human amylin receptor (SPA, 125I-rat amylin).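 Further: competition binding of cell membranes (35 ng/µL) mixed with SPA beads in 384-well plates at 40 µL total volume, read by scintillation counting.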

The next data set deals with T2, rat calcitonin receptor (Rattus norvegicus, UniProt P32214).
T2 construct: expressed in transfected cells; host or cells: BHK tk'ts 13 (transient, FuGENE 6), membranes
T2 sequence (P32214 25-479 isoform P32214-2 limits assumed): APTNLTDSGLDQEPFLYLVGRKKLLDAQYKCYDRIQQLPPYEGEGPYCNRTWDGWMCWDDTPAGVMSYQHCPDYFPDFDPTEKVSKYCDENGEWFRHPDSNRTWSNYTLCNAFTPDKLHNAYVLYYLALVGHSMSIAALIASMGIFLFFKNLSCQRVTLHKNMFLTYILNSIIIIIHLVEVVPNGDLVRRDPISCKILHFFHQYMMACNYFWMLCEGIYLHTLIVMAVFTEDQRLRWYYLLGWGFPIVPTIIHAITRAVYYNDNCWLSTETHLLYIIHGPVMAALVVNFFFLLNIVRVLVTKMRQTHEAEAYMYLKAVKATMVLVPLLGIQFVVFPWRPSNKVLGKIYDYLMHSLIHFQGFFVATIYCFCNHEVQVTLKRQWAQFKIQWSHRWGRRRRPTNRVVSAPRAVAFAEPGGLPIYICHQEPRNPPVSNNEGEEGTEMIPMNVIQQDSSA
Put plainly: ASSAY (VIII) binding to the rat calcitonin receptor. The note with it: Table 7, read-out: rCTR bind IC50. In outline:
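Transfect BHK tk′ts 13 cells transiently with rat calcitonin receptor, culture in DMEM containing 10% FBS, collect cells about 48 hours later, then prepare membranes.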

The mark [3] stands for this setting: bistrispropane buffer, pH 6.5, read-out: Solubility pH 6.5 Concentration.
[4] abbreviates: bistrispropane buffer, pH 7.5, read-out: Solubility pH 7.5 Concentration.
The mark [5] stands for this setting: bistrispropane buffer, pH 6.0, read-out: Solubility pH 6.0 Concentration.
[6] abbreviates: bistrispropane buffer, pH 7.0, read-out: Solubility pH 7.0 Concentration.
The mark [7] stands for this setting: bistrispropane buffer, pH 8.0, read-out: Solubility pH 8.0 Concentration.
Setting [8] is: glycylglycine buffer, pH 3.0, read-out: Solubility pH 3.0 Concentration.
Setting [9] is: glycylglycine buffer, pH 4.0, read-out: Solubility pH 4.0 Concentration.
The mark [10] stands for this setting: glycylglycine buffer, pH 5.0, read-out: Solubility pH 5.0 Concentration.
The mark [11] stands for this setting: Table 5, selectivity, hCTR bind IC50 / hAmylin-R bind IC50.
[12] abbreviates: Table 5a, selectivity, hCTR bind IC50 / hAmylin-R bind IC50.
Setting [13] is: Table 5b, selectivity, hCTR bind IC50 / hAmylin-R bind IC50.
Where [14] appears, read: Table 5c, selectivity, hCTR bind IC50 / hAmylin-R bind IC50.
Where [15] appears, read: Table 7, human binding selectivity, included for comparison.
Where [16] appears, read: Table 7a (preferred compounds), human binding selectivity, included for comparison.
Where [17] appears, read: ratio of human calcitonin receptor binding IC50 to human amylin receptor binding IC50.

The IC50 is the point on the concentration scale where inhibition reaches its midpoint. As to `CC[C@H](C)[C@H](NC(=O)[C@H](C)NC(=O)CNC(=O)[C@H](Cc1ccccc1)NC(=O)[C@H](CC(N)=O)NC(=O)[C@@H]1CCCN1C(=O)[C@H](CO)NC(=O)[C@H](CO)NC(=O)[C@H](Cc1c[nH]cn1)NC(=O)[C@H](CCCNC(=N)N)NC(=O)[C@H](CC(C)C)NC(=O)[C@H](Cc1ccccc1)NC(=O)[C@H](Cc1c[nH]cn1)NC(=O)[C@H](C)NC(=O)[C@H](CC(C)C)NC(=O)[C@H](CCCNC(=N)N)NC(=O)[C@H](CCC(N)=O)NC(=O)[C@@H](NC(=O)[C@H](C)NC(=O)[C@@H]1CSSC[C@H](NC(=O)[C@@H](N)CCCCNC(=O)COCCOCCNC(=O)CC[C@H](NC(=O)CCCCCCCCCCCCCCCCCCC(=O)O)C(=O)O)C(=O)N[C@@H](CC(N)=O)C(=O)N[C@@H]([C@@H](C)O)C(=O)N[C@@H](C)C(=O)N[C@@H]([C@@H](C)O)C(=O)N1)[C@@H](C)O)C(=O)N1CCC[C@H]1C(=O)N[C@@H](CO)C(=O)N[C@@H](CO)C(=O)N[C@H](C(=O)N[C@@H](CC(N)=O)C(=O)N[C@H](C(=O)NCC(=O)N[C@@H](CCCNC(=N)N)C(=O)N[C@@H](CC(N)=O)C(=O)N[C@H](C(=O)N[C@@H](Cc1ccc(O)cc1)C(N)=O)[C@@H](C)O)C(C)C)[C@@H](C)O` [Example 84] (H-K([AEEA-γGlu-C20 diacid])CNTATCATQRLAHFLRHSSPNFGAIPSSTNVGRNTY-NH2; disulfide 2-7 (inferred); N-terminus assumed), in the data set with Sprague Dawley (SD) rats, the “Food intake reduction 0-24 h 30 nmol/kg (%)” value was 10%. For the same molecule, in the data set on Sprague Dawley (SD) rats, the “Food intake reduction 24-48 h 30 nmol/kg (%)” value was determined as 0%. Also, the solubility at 18 h in data set [1] (setting [3]), in data set [1] (setting [4]), in data set [1] (setting [5]), in data set [1] (setting [6]), in data set [1] (setting [7]) and in data set [1] (setting [8]) was at least 200 µM throughout. In addition, the solubility at 18 h in data set [1] (setting [9]) and in data set [1] (setting [10]) was at least 200 µM in each case. For the same molecule, the IC50 was found to be 0.000743 µM in data set [2] (Table 4, read-out: hAmylin-R bind IC50) and 0.477 µM on rat calcitonin receptor. The “Ratio hCT/hAmylin binding” value in data set [2] (setting [11]), in data set [2] (setting [12]), in data set [2] (setting [13]), in data set [2] (setting [14]), in data set [2] (setting [15]) and in data set [2] (setting [16]) was 119.6 in each case. In addition, in data set [2] (setting [17]), the “Ratio hCT/hAmylin binding” value came out at 119.6.
In the case of `CC[C@H](C)[C@H](NC(=O)[C@H](C)NC(=O)CNC(=O)[C@H](Cc1ccccc1)NC(=O)[C@H](CC(N)=O)NC(=O)[C@@H]1CCCN1C(=O)[C@H](CO)NC(=O)[C@H](CO)NC(=O)[C@H](Cc1c[nH]cn1)NC(=O)[C@H](CCCNC(=N)N)NC(=O)[C@H](CC(C)C)NC(=O)[C@H](Cc1ccccc1)NC(=O)[C@H](CCC(=O)O)NC(=O)[C@H](C)NC(=O)[C@H](CC(C)C)NC(=O)[C@H](CCCNC(=N)N)NC(=O)[C@H](CCC(N)=O)NC(=O)[C@@H](NC(=O)[C@H](C)NC(=O)[C@@H]1CSSC[C@H](NC(=O)[C@@H](N)CCCCNC(=O)CC[C@H](NC(=O)CCCCCCCCCCCCCCCCCCC(=O)O)C(=O)O)C(=O)N[C@@H](CC(N)=O)C(=O)N[C@@H]([C@@H](C)O)C(=O)N[C@@H](C)C(=O)N[C@@H]([C@@H](C)O)C(=O)N1)[C@@H](C)O)C(=O)N1CCC[C@H]1C(=O)N[C@@H](CO)C(=O)N[C@@H](CO)C(=O)N[C@H](C(=O)N[C@@H](CC(N)=O)C(=O)N[C@H](C(=O)NCC(=O)N1CCC[C@H]1C(=O)N[C@@H](CCCNC(=N)N)C(=O)N[C@H](C(=O)N[C@@H](Cc1ccc(O)cc1)C(N)=O)[C@@H](C)O)C(C)C)[C@@H](C)O` [Example 117] (H-K([γGlu-C20 diacid])CNTATCATQRLAEFLRHSSPNFGAIPSSTNVGPRTY-NH2; disulfide 2-7; N-terminus assumed), in the data set on Sprague Dawley (SD) rats, the “Food intake reduction 0-24 h 30 nmol/kg (%)” value was determined as 61%. The “Food intake reduction 24-48 h 30 nmol/kg (%)” value with Sprague Dawley (SD) rats amounted to 4%. The solubility at 18 h was at least 200 µM in data set [1] (setting [3]); at least 200 µM in data set [1] (setting [4]); at least 200 µM in data set [1] (setting [5]); at least 200 µM in data set [1] (setting [6]); 147 µM (≈ 654 µg/mL) in data set [1] (setting [7]); at least 200 µM in data set [1] (setting [8]). Moreover, the solubility at 18 h in data set [1] (setting [9]) and in data set [1] (setting [10]) was at least 200 µM in each case. Further, the “Ratio hCT/hAmylin binding” value in data set [2] (setting [11]), in data set [2] (setting [12]), in data set [2] (setting [13]), in data set [2] (setting [14]), in data set [2] (setting [15]) and in data set [2] (setting [16]) was 38.6 throughout. In data set [2] (setting [17]), the “Ratio hCT/hAmylin binding” value is 38.6. Besides, the IC50 on rat calcitonin receptor was 0.0154 µM.
Take `CC[C@H](C)[C@H](NC(=O)[C@H](C)NC(=O)CNC(=O)[C@H](Cc1ccccc1)NC(=O)[C@H](CC(N)=O)NC(=O)[C@@H]1CCCN1C(=O)[C@H](CO)NC(=O)[C@H](CO)NC(=O)[C@H](Cc1c[nH]cn1)NC(=O)[C@H](CCCNC(=N)N)NC(=O)[C@H](CC(C)C)NC(=O)[C@H](Cc1ccccc1)NC(=O)[C@H](CCC(=O)O)NC(=O)[C@H](C)NC(=O)[C@H](CC(C)C)NC(=O)[C@H](CCCNC(=N)N)NC(=O)[C@H](CCC(N)=O)NC(=O)[C@@H](NC(=O)[C@H](C)NC(=O)[C@@H]1CSSC[C@H](NC(=O)[C@@H](N)CCCCNC(=O)CC[C@H](NC(=O)CC[C@H](NC(=O)CCCCCCCCCCCCCCCCCCC(=O)O)C(=O)O)C(=O)O)C(=O)N[C@@H](CC(N)=O)C(=O)N[C@@H]([C@@H](C)O)C(=O)N[C@@H](C)C(=O)N[C@@H]([C@@H](C)O)C(=O)N1)[C@@H](C)O)C(=O)N1CCC[C@H]1C(=O)N[C@@H](CO)C(=O)N[C@@H](CO)C(=O)N[C@H](C(=O)N[C@@H](CC(N)=O)C(=O)N[C@H](C(=O)NCC(=O)N1CCC[C@H]1C(=O)N[C@@H](Cc1c[nH]cn1)C(=O)N[C@H](C(=O)N[C@@H](Cc1ccc(O)cc1)C(N)=O)[C@@H](C)O)C(C)C)[C@@H](C)O` [Example 124] (H-K([γGlu-γGlu-C20 diacid])CNTATCATQRLAEFLRHSSPNFGAIPSSTNVGPHTY-NH2; disulfide 2-7 (inferred)): the “Food intake reduction 0-24 h 30 nmol/kg (%)” value in the data set on Sprague Dawley (SD) rats is listed as 73%. Further, in the data set on Sprague Dawley (SD) rats, the “Food intake reduction 24-48 h 30 nmol/kg (%)” value stood at 38%. In addition, the solubility at 18 h was at least 200 µM in data set [1] (setting [3]); at least 200 µM in data set [1] (setting [4]); at least 200 µM in data set [1] (setting [5]); at least 200 µM in data set [1] (setting [6]); 165 µM (≈ 752 µg/mL) in data set [1] (setting [7]); at least 200 µM in data set [1] (setting [8]). Besides, the solubility at 18 h in data set [1] (setting [9]) and in data set [1] (setting [10]) was at least 200 µM throughout. Further, the “Ratio hCT/hAmylin binding” value in data set [2] (setting [11]), in data set [2] (setting [12]), in data set [2] (setting [13]), in data set [2] (setting [14]), in data set [2] (setting [15]) and in data set [2] (setting [16]) was 27.3 in each case. The “Ratio hCT/hAmylin binding” value in data set [2] (setting [17]) came out at 27.3. At rat calcitonin receptor, the IC50 was found to be 0.021 µM.
